# Source: US10000558B2, “Use of annexin A3 as a diagnostic and prognostic biomarker and therapeutic target for treating hepatocellular carcinoma” (The University of Hong Kong, priority 2013, dated 2018)
# “And” between values parts separate entries of the source, which are not always exact repeats. Identical values can stand only once.
# Columns and labels:
# Huh7 cells = assay: Apoptosis analysis by Annexin V-PI flow cytometry; format: cell-based, human; conditions: for 5-fluorouracil-induced apoptosis: 5-fluorouracil 150 µg/ml for 48 hrs; for Cisplatin-induced apoptosis: cisplatin 5 μg/ml for 48 hrs; for STS-induced apoptosis: STS 1 μg/ml for 6 hrs
# Method: Cells were treated with cisplatin (5 μg/ml) or 5-fluorouracil ([…]) for 48 hrs, apoptosis inducer staurosporin (STS, 1 μg/ml) for 6 hrs. Cells would then be subsequently harvested and stained in binding buffer, propidium iodide (PI) and FITC-conjugated Annexin V as provided by the Annexin-V FLUOS Staining Kit (Roche Diagnostics) according to manufacturer's instructions. Analysis was determined by a FACS Canto II (BD Biosciences) and FlowJo software (Tree Star, Inc.).
# The effect of ANXA3 on resistance to apoptosis and chemotherapy was investigated by Annexin V-PI staining followed by flow cytometry analysis. To investigate whether ANXA3 expression in HCC confers enhanced resistance to chemotherapy and apoptosis, Huh7 cells with or without ANXA3 repressed were treated with the apoptosis inducer staurosporin (STS) or chemotherapeutic reagents, 5-fluorouracil (5-FU) or cisplatin, in vitro and analyzed for apoptotic/necrotic cells by flow cytometry. […] Upon stable ANXA3 knockdown in Huh7 and PLC8024 HCC cells, HCC cells became less resistant to the apoptosis inducer, staurosporin (STS) and chemotherapy, 5-fluorouracil and cisplatin, resulting in a significant increase in apoptotic/necrotic cells.
# [1] = tested on: HCC Huh7 cells or HCC primary cells; assay: Subcutaneous HCC xenograft treatment in NOD-SCID mice; format: in vivo
# Method: Immunodeficient NOD-SCID mice transplanted subcutaneously with HCC Huh7 cells or HCC primary cells were injected with PBS, mouse IgG control ANXA3 mAb, cisplatin or a combination of ANXA3 mAb and cisplatin over a period of 3 weeks (FIGS. 4A, B and C).
# [2] = Huh7 ANXA3 repressed clones (two clones, values not assigned)
structure (smiles),measurement,setting,value
O=c1[nH]cc(F)c(=O)[nH]1 [5-fluorouracil],5-fluorouracil-induced apoptosis,Huh7 cells; [2],39.4% and 55.51%
same,5-fluorouracil-induced apoptosis,Huh7 cells; Huh7 control (NTC) cells,30.1%
"N.N.[Cl][Pt][Cl] [cisplatin, reference compound]",Cisplatin-induced apoptosis,Huh7 cells; [2],38.4% and 41.1%
same,Cisplatin-induced apoptosis,Huh7 cells; Huh7 control (NTC) cells,26.73%
same,tumor formation after serial transplantation of residual tumor into secondary mouse recipients,[1]; FIG. 4D,resulted in tumor formation and recurrence
same,tumor growth / tumor volume,"[1]; NOD-SCID mice, subcutaneous transplant, injections over 3 weeks, FIG. 4A, B",marked reduction in tumor volume
same,CD133+ liver CSC subset in tumor,"[1]; flow cytometric analysis of residual tumors, FIG. 4C",enriched
"CN[C@@H]1C[C@H]2O[C@@](C)([C@@H]1OC)n1c3ccccc3c3c4c(c5c6ccccc6n2c5c31)C(=O)NC4 [STS, staurosporin]",STS-induced apoptosis,Huh7 cells; [2],53.58% and 52.3%
same,STS-induced apoptosis,Huh7 cells; Huh7 control (NTC) cells,43.72%
